From patent US9211264B2, “Coated drug spheroids and uses thereof for eliminating or reducing conditions such as emesis and diarrhea” (Wyeth LLC, priority 2009, dated 2015) come the findings set out here.

A short description of data set [1]: GI tolerability with and without concurrent ketoconazole (subjects reporting GI AEs). The format is in vivo. The procedure: (§1) Exposure studies were performed to determine if gastrointestinal tolerability is related to systemic exposure of neratinib maleate.
Subjects Reporting GI AEs

A short description of data set [2]: Adverse events in multiple dose clinical studies of cancer patients. Type of data set: in vivo, human. Conditions: cancer patients (>400), single agent and combination. The text has this: Adverse events in clinical studies of cancer patients were observed and classified as follows: • Nausea, Vomiting, Diarrhea, Dehydration, Anorexia (˜95%) • Asthenia, Fatigue (˜30-60%) • Rash (˜20-25%) • Elevated ALT, AST (<10%)

The nature of data set [3]: Gastrointestinal adverse events in single dose clinical studies of healthy subjects. Type of data set: in vivo, human. The note with it: 192 healthy subjects, five single doses. The text has this:
In a clinical study, 192 healthy subjects were given five single doses of neratinib maleate. Adverse events were observed and classified as follows: • Grade 1 gastrointestinal adverse events (GI AEs) ˜25%40% • Grade 2 gastrointestinal adverse events (GI AEs) ˜15%
Grade 1 and 2 gastrointestinal adverse events predominated as the adverse events observed in clinical studies of healthy subjects.

The nature of data set [4]: Exposure study: neratinib pharmacokinetics with and without concurrent ketoconazole. The note with it: human, in vivo, 240 mg, 240 mg neratinib. Here is the method:
as §1

By Cmax is commonly meant the peak of the concentration-time curve.

Where a name gives a salt, the structure may show the parent alone. Read-outs that look alike come from different tables or passages of the source. Some results are limits rather than exact numbers.

Consider `CCOc1cc2ncc(C#N)c(Nc3ccc(OCc4ccccn4)c(Cl)c3)c2cc1NC(=O)/C=C/CN(C)C` [neratinib maleate, (E)-N-(4-(3-chloro-4-(pyridin-2-ylmethoxy)phenylamino)-3-cyano-7-ethoxyquinolin-6-yl)-4-(dimethylamino) but-2-enamide], for which, in data set [1] (exposure studies with concurrent ketoconazole), the “GI tolerability (diarrhea) relation to systemic exposure” value is given as “not related to systemic exposure”. Further, in data set [2], the “Asthenia, Fatigue” value is reported as 30-60%; the “Elevated ALT, AST” value is < 10%; the “Nausea, Vomiting, Diarrhea, Dehydration, Anorexia” value is on record as ~95%; the Rash is recorded as 20-25%. In addition, the “Grade 2 gastrointestinal adverse events (GI AEs)” value in data set [3] is given as ~15%.
For `CCOc1cc2ncc(C#N)c(Nc3ccc(OCc4ccccn4)c(Cl)c3)c2cc1NC(=O)/C=C/CN(C)C` [Neratinib, (E)-N-(4-(3-chloro-4-(pyridin-2-ylmethoxy)phenylamino)-3-cyano-7-ethoxyquinolin-6-yl)-4-(dimethylamino) but-2-enamide], the “Subjects Reporting GI AEs: GI Disorders” value in data set [1] (240 mg neratinib) amounted to 31.8%. The AUC(0-t) in data set [4] (geometric mean in brackets, read-out: AUC t [Geo mean]) came to 727 ng·h/mL; in data set [4] (value outside brackets, read-out: AUC t), 835 ng·h/mL. For the same molecule, the AUC(0-inf) was 802 ng·h/mL in data set [4] (geometric mean in brackets, read-out: AUC∞ [Geo mean]) and 903 ng·h/mL in data set [4] (value outside brackets, read-out: AUC∞). The peak concentration (Cmax) in data set [4] (geometric mean in brackets, read-out: Cmax [Geo mean]) is 51.5 ng/mL; in data set [4] (value outside brackets, read-out: Cmax), 55.3 ng/mL.
